Measured values taken from article PMC12022903, “Evaluation of drug-drug interaction between Suraxavir Marboxil (GP681) and itraconazole, and assessment of the impact of gene polymorphism” (Frontiers in Pharmacology, 2025).
Where “and” joins values, the source holds several entries; their conditions need not be identical. Identical values can stand only once.

Assay: Pharmacokinetic parameters of GP1707D07 (HPLC-MS/MS, non-compartmental) in the GP681-itraconazole drug-drug interaction study
Type: in vivo, healthy Chinese subjects
Conditions: for Cmax / MRT0-t / MRT0-∞ / Tmax / Vz/F / t1/2 / λz / AUC0-t / AUC0-∞ / AUC_%Extrap / CL/F: Period 2, GP681 20 mg + itraconazole
Description: This single-center, open-label, self-controlled, fixed-sequence study, sponsored by Qingfeng Pharmaceutical Group Co., Ltd., was conducted at a single clinical research site in the China–Japan Friendship Hospital (Beijing, China). Each subject received the following treatment: Suraxavir Marboxil (GP681) 20 mg in the fasted state on day 1 and day 26. Itraconazole capsules (Sporanox®: Xi’an Yangsen Pharmaceutical Co., Ltd., China) 0.2 g twice daily (BID, bis in die) on day 22. Itraconazole 0.2 g daily from day 23 to day 36 [including day 26, when itraconazole was co-administrated with Suraxavir Marboxil (GP681)]. The washout period is 21 days (Figure 2). It should be noted that in the following sections, when discussing the PK profile, this study was divided into Period 1 (Suraxavir Marboxil (GP681) monotherapy, from day −1 to day 12), and Period 2 (Suraxavir Marboxil (GP681)-itraconazole co-administration, from day 21 to day 36). When discussion the safety profile, this study was divided into Stage 1 (Suraxavir Marboxil (GP681) monotherapy stage, from day 1 to day 21), Stage 2 (itraconazole monotherapy stage, from day 22 to day 25), and Stage 3 (Suraxavir Marboxil (GP681)-itraconazole co-administration stage, from d 26 to d 36).
Blood samples were collected at the following time points: pre–dose, 0.5, 1, 2, 3, 4, 5, 6, 8, 12, 24, 36, 48, 72, 120, 168, and 264 h post-dose on day 1 and day 26. In addition, a blood sample were collected before dosing on day 1 for genetic polymorphism assessment.
A validated high-performance liquid chromatography-tandem mass spectrometry (HPLC-MS/MS) method was used to determine plasma concentrations of Suraxavir Marboxil (GP681) and its active metabolite GP1707D07 at different times, with the quantification range of 0.3/0.3–300/300 ng/mL for Suraxavir Marboxil (GP681) and GP1707D07. The lower limit of quantification (LLOQ) for both compounds was 0.300 ng/mL. Phoenix® WinNonlin® 8.3 was used to estimate and analyze the pharmacokinetic parameters of non-compartmental model from plasma concentration data. Pharmacokinetic parameters included: maximum plasma concentration (Cmax), area under the plasma concentration-time curve extrapolated from time zero to infinity (AUC0- ∞ ), time to Cmax (Tmax), half-life (t1/2), λz, AUC_%Extrap, Vz/F, CL/F, and mean residence time (MRT).
Statistical analysis was performed using SAS (version 9.4 or above) software programming. Pharmacokinetic concentration analysis was based on Pharmacokinetic Analysis Concentration Set (PKCS). Individual and mean concentrations (mean ± SD) were plotted against planned blood sampling time points for the analyte on linear and semi-log scales. Pharmacokinetic parameter analysis was based on Pharmacokinetic Analysis Parameter Set (PKPS). Drug interaction analysis was based on Drug Interaction Set (DIS). The geometric mean ratios and their 90% confidence intervals of pharmacokinetic parameters Cmax, AUC0-t, and AUC0- ∞ under Suraxavir Marboxil (GP681) single dose and Suraxavir Marboxil (GP681)-itraconazole co-administration conditions were calculated after natural logarithm transformation, using a linear mixed effects model with subjects as random effects and treatment (combined/single) as fixed effects.
1.3 Pharmacokinetic Sample Collection and Processing: Pharmacokinetic Analysis: Approximately 4 mL of blood is collected each time into a tube containing sodium fluoride/potassium oxalate as an anticoagulant. The tube is then placed upright in an ice-water bath. The plasma samples are separated by centrifugation for the detection of GP681/GP1707D07 blood drug concentrations. Both sample collection and processing are conducted under white light conditions. […]

[1] = mean (SD), N = 4 (8 subjects with %AUCextrap >20% not included)

## O=C1c2c(O)c(=O)ccn2N([C@@H]2c3ccccc3SCc3c2ccc(F)c3F)[C@@H]2COC3(CC3)CN12 [GP1707D07]
Geometric mean, N=12
  Cmax: 22.0 ng/mL and 22.0359 ng/mL
  MRT0-t: 91.828 h
  MRT0-∞: 170.5 h and 170.494 h
  Tmax: 4.4 h
  Vz/F: 1365.672 L
  t1/2: 125.561 h
  λz: 0.0055 h⁻¹
Individual subjects
  AUC0-t: 2991.14 ng·h/mL and 2032.39 ng·h/mL and 1353.85 ng·h/mL and 2127.20 ng·h/mL and 1044.79 ng·h/mL and 2764.96 ng·h/mL and 1661.62 ng·h/mL and 2484.54 ng·h/mL and 2488.27 ng·h/mL and 2757.79 ng·h/mL and 1586.83 ng·h/mL and 2524.54 ng·h/mL and 2991.1 ng·h/mL and 2032.4 ng·h/mL and 1353.9 ng·h/mL and 1044.8 ng·h/mL and 2765.0 ng·h/mL and 1661.6 ng·h/mL and 2484.5 ng·h/mL and 2488.3 ng·h/mL and 2757.8 ng·h/mL and 1586.8 ng·h/mL and 2524.5 ng·h/mL
  AUC0-∞: 4071.31 ng·h/mL and 2952.73 ng·h/mL and 1815.81 ng·h/mL and 2809.94 ng·h/mL and 1322.58 ng·h/mL and 3386.84 ng·h/mL and 1943.92 ng·h/mL and 3038.12 ng·h/mL and 3010.01 ng·h/mL and 3496.61 ng·h/mL and 2164.09 ng·h/mL and 3287.23 ng·h/mL
  AUC_%Extrap: 26.53% and 31.17% and 25.44% and 24.30% and 21.00% and 18.36% and 14.52% and 18.22% and 17.33% and 21.13% and 26.67% and 23.20%
  CL/F: 4.91 L/h and 6.77 L/h and 11.01 L/h and 7.12 L/h and 15.12 L/h and 5.91 L/h and 10.29 L/h and 6.58 L/h and 6.64 L/h and 5.72 L/h and 9.24 L/h and 6.08 L/h
  Cmax: 30.409 ng/mL and 21.586 ng/mL and 13.021 ng/mL and 20.877 ng/mL and 9.944 ng/mL and 32.652 ng/mL and 20.426 ng/mL and 33.588 ng/mL and 31.705 ng/mL and 26.988 ng/mL and 14.549 ng/mL and 26.492 ng/mL and 30.4 ng/mL and 21.6 ng/mL and 13.0 ng/mL and 20.9 ng/mL and 9.9 ng/mL and 32.7 ng/mL and 20.4 ng/mL and 33.6 ng/mL and 31.7 ng/mL and 27.0 ng/mL and 14.5 ng/mL and 26.5 ng/mL
  MRT0-t: 95.36 h and 94.95 h and 95.71 h and 95.46 h and 92.09 h and 90.98 h and 84.46 h and 87.34 h and 83.83 h and 94.91 h and 93.53 h and 94.49 h
  MRT0-∞: 196.38 h and 225.05 h and 182.53 h and 178.20 h and 165.60 h and 151.62 h and 129.66 h and 149.99 h and 143.87 h and 168.40 h and 198.32 h and 178.88 h
  Tmax: 6 h and 4 h and 5 h and 3 h
  Vz/F: 1042.08 L and 1684.38 L and 1909.99 L and 1224.96 L and 2694.46 L and 929.93 L and 1355.33 L and 1100.32 L and 1104.05 L and 1021.99 L and 2056.61 L and 1181.94 L
  t1/2: 147.04 h and 172.37 h and 120.20 h and 119.29 h and 123.51 h and 109.15 h and 91.31 h and 115.86 h and 115.17 h and 123.85 h and 154.25 h and 134.65 h
  λz: 0.005 h⁻¹ and 0.004 h⁻¹ and 0.006 h⁻¹ and 0.008 h⁻¹
  AUC0-t Ratio Period 2/Period 1: 7.8 and 2.8 and 1.7 and 2.2 and 1.8 and 1.4 and 1.9 and 2.0 and 2.1
  Cmax Ratio Period 2/Period 1: 8.0 and 1.7 and 0.8 and 1.8 and 1.3 and 1.6 and 1.1 and 0.6
[1]
  AUC0-∞: 2,844.7 (624.5) (N = 4) h*ng/mL
  CL/F: 7.4 (2.0) (N = 4) L/h
  Vz/F: 1,122.4 (175.2) (N = 4) L
  t1/2: 107.9 (11.4) (N = 4) h
  λz: 0.007 (0.0008) (N = 4) h-1
mean, all 12 subjects
  AUC_%Extrap: 22.3 (4.8) % and 22.324%
  CL/F: 8.0 (2.9) L/h and 7.951 L/h
  Cmax: 23.5 (8.1) ng/mL and 23.5198 ng/mL
  MRT0-t: 91.9 (4.4) h and 91.926 h
  MRT0-∞: 172.4 (26.7) h and 172.374 h
  Tmax: 4.5 h
  t1/2: 127.2 (21.8) h and 127.221 h
  λz: 0.006 (0.0009) h-1 and 0.0056 h-1
Median (range), N=12
  Tmax: 4.5 (3.0–6.0) h
median, N=12
  AUC0-t: 2305.872 ng·h/mL
  AUC0-∞: 2981.370 ng·h/mL
  AUC_%Extrap: 22.166%
  CL/F: 6.709 L/h
  Cmax: 24.0390 ng/mL
  MRT0-t: 94.010 h
  MRT0-∞: 173.300 h
  Vz/F: 1203.452 L
  t1/2: 121.852 h
  λz: 0.0057 h⁻¹
Period 2, GP681 + itraconazole, statistic not stated (discussion)
  half-life: 107.4 h
Arithmetic means
  increase of AUC0-t in Period 2 compared to Period 1: 107%
  increase of AUC0-∞ in Period 2 compared to Period 1: 153%
  increase of Cmax in Period 2 compared to Period 1: 22%
